We go through six compounds from patent publication US20160030367A1, “Methods and Compositions for Preventing Metastasis and for Improving the Survival Time” (INSERM (INSTITUT NATIONAL DE LA SANTÉ ET DE LA RECHERCHE …, priority 2013, published 2016).

Test [1] concerns 1205Lu melanoma cells. Kind of test: Invasion assay in Matrigel-coated Boyden chambers. The test is classed as cell-based, human. Conditions: for cell invasion, dose dependence: indicated concentrations. The method, then: (§1) Boyden chambers (8.0-μm pores, Transwell, Corning, Inc.) were coated with 1 mg/ml Matrigel® (BD Biosciences) and were placed into 24-well chambers containing medium supplemented with 10% FCS. The cells were resuspended in FCS-starved medium, loaded into the top chamber. […] Results represent the average of triplicate samples from three independent experiments.

Test [2] deals with A375 melanoma cells. Kind of test: Invasion assay in Matrigel-coated Boyden chambers. To be noted: 24 h; for cell invasion, dose dependence: indicated concentrations. In kind it is cell-based. The method, then: as §1
The test system of test [3] is p53. Kind of test: p53-dependent luciferase reporter assay (PG13-Luc) in melanoma cells. In kind it is cell-based. To be noted: positive control. Background: A reporter such as luciferase makes a cellular process visible.
Protocol: Melanoma cells were seeded in 24-well dishes, and transient transfections were performed the following day using 2 μl Lipofectamine (Gibco-BRL, Eragny, France) and 0.3 mg of PG13-Luc, a p53-dependent firefly luciferase reporter gene in a 200-ml final volume. pCMVβGal plasmid was cotransfected to control the variability of transfection efficiency in the reporter assays. […] At 24 hours after stimulation, cells were harvested in 50 μl of lysis buffer and soluble extracts assayed for luciferase and β-galactosidase activities. All transfections were repeated several times using different plasmid preparations. Luciferase assays were carried out exactly as described (17).
Test [4] has as its system WM9 melanoma cells. The experiment in a line: Three-dimensional spheroid invasion into collagen. The test is classed as cell-based. How it is done: Melanoma spheroids were prepared using the liquid overlay method. Briefly, 500 μL of melanoma cells (20000/ml) were added to a 24-well plate coated with 1.5% agar (Difco, Sparks, Md.). Plates were left to incubate for 72 hours, by which time cells had organized into three-dimensional spheroids. Spheroids were then harvested using a P1000 pipette. The medium was removed and the spheroids were implanted into a gel of bovine collagen I containing MEM (Invitrogen). Normal melanoma medium was overlaid on top of the solidified collagen. After different time, pictures of the invading spheroids were taken using a Zeiss microscope.

The subject of test [5] is 1205Lu melanoma cells. Kind of test: Migration assay in Boyden chambers. In kind it is cell-based, human. Conditions: after 24 hours. From the text: (§2) Boyden chambers (8.0-μm pores, Transwell, Corning, Inc.) were placed into 24-well chambers containing medium supplemented with 10% FCS. The cells were resuspended in FCS-starved medium, loaded into the top chamber. […] Results represent the average of triplicate samples from three independent experiments.

The test system of test [6] is A375 melanoma cells. Kind of test: Migration assay in Boyden chambers. To be noted: after 24 hours. In kind it is cell-based.
From the text: as §2

Test [7] deals with 1205Lu melanoma cells. Kind of test: Wound healing assay. The test is classed as cell-based, human.
The subject of test [8] is A375 melanoma cells. The experiment in a line: Wound healing assay. In kind it is cell-based.
The subject of test [9] is melanoma cells freshly isolated from patients. The experiment in a line: Invasion assay in Matrigel-coated Boyden chambers. In kind it is cell-based, human. To be noted: 10 mM, 24 h. The method, then: Different cancer cell lines were purchased from American Tissue Culture Collection (Molsheim, France). Cells were grown in RPMI 1640 (A375, WM9, SKMel28 and LNCap) or in DMEM medium (1205Lu, Mel501, Mewo and PC3) supplemented with 10% FCS and penicillin/streptomycin (100 U/ml/[…]) at 37° C. and 5% CO2. Patient melanoma cells were prepared as described (13). Briefly, biopsy was dissected and digested for 1-2 h with collagenase A (0.33 U/ml), dispase (0.85 U/ml) and Dnase I (144 U/ml) with rapid shaking at 37° C. Large debris were removed by filtration through a […] cell strainer. Viable cells were obtained by Ficoll gradient centrifugation.
Boyden chambers (8.0-μm pores, Transwell, Corning, Inc.) were coated with 1 mg/ml Matrigel® (BD Biosciences) and were placed into 24-well chambers containing medium supplemented with 10% FCS. The cells were resuspended in FCS-starved medium, loaded into the top chamber. 5 h later, cells adherent to the underside of the filters were fixed with 4% PFA and stained with 0.4% crystal violet, and five random fields at 20× magnification were counted. Results represent the average of triplicate samples from three independent experiments.

In test [10] the test system is Fibronectin, N-Cadherin, Vimentin, Sparc, Slug and Snail in 1205Lu melanoma cells. The experiment in a line: Western blot of EMT markers. The test is classed as cell-based, human. The method, then: (§3) Protein were extracted in buffer containing TRIS-HCl pH7.5 50 mM, NaCl 15 mM, Triton X-100 1% and protease and phosphatase inhibitor 1X. Briefly, cell lysates (30 μg) were separated by SDS-PAGE, transferred onto a PVDF membrane (Millipore, Molsheim, France) and then exposed to the appropriate antibodies. Proteins were visualized with the ECL system from Amersham (Arlington, Heights, Ill., USA). The western blots shown are representative of at least 3 independent experiments.
For orientation: Immunoblotting shows a protein as a band on a membrane.

For test [11], the system named is total MMP activity. Kind of test: Matrix metalloproteinase (MMP) activity measurement, fluorogenic substrate, culture media of 1205Lu cells. The test is classed as cell-based, human. To be noted: 10 mM, 24 h. The method, then: The culture media from stimulated cells were harvested and incubated in a 96-well plate with 0.2 mM of NH2-RA-Dpa-LGLP-AMC as a substrate for various times at 37° C. MMP activity was measured in quadruplicate by quantifying the emission at 460 nm (excitation at 390 nm) in the presence or absence of 10 μM CP471474. The enzyme activities were expressed in arbitrary units per mg of protein.

For test [12], the system named is MMP-2. The experiment in a line: Type I collagen substrate zymography, 1205Lu culture media. The test is classed as cell-based, human. The method, then: (§4) The culture media from 1205Lu melanoma cells was concentrated in centrifugal filter unit and loaded on 10% SDS-polyacrylamide gels containing 1 mg/ml type I collagen (BD Biosciences). To estimated the protein concentration, 1205Lu melanoma cells were lysed in a buffer containing 1% Triton X-100, 150 mM NaCl, and 20 mM Tris, pH 7.4, supplemented with a protease inhibitor mixture (Complete EDTA-free, Roche Molecular Biochemicals) at 4° C. under agitation for 30 min. Lysates were clarified by brief spinning, and protein concentration was evaluated by bicinchoninic acid technique (BCA protein assay kit, Pierce). Following electrophoresis, proteins were renatured by incubating gels in 2.5% Triton X-100 for 2 h at 37° C. Gels were then washed three times in distilled water and incubated in substrate buffer (50 mM Tris, pH 7.4, and 1 mM CaCl2) at 37° C. for 24 h with gentle shaking Gels were stained with 0.1% Coomassie Blue R-250 (Sigma) and destained in 7% acetic acid. Enzymatic activities appear as cleared bands in a dark background.

Test [13] deals with MMP-9. The description is as above. The test is classed as cell-based, human. The method, then: as §4
Test [14] has as its system AMPK. The experiment in a line: Western blot in 1205Lu cells infected with Ad AMPK-DN or Ad control. In kind it is cell-based, human. How it is done: Adenoviruses encoding a dominant negative form (Ad AMPK-DN) of subunits α1 and α2 of AMPK were a generous gift of Dr. Foufelle (INSERM, UMR-S 872, Paris, France). An adenovirus of which the expression cassette contains the major late promoter with no exogenous gene was used as control (Ad control). Adenoviruses were propagated in human embryonic kidney 293 cells and stored at −80° C.
as §3

Test [15] relates to 1205Lu melanoma cells expressing luciferase. The experiment in a line: Lung metastasis model, bioluminescence, nude mice. In kind it is in vivo. The method, then: 1205Lu cells stably transfected with a vector encoding luciferase cells come from the team of Dr. Tartare-Deckert. A total of 1×10^6/150 μl PBS 1205Lu-Luc cells were injected via the tail vein of nude mice (Harlan Laboratories). […] To perform pulmonary extravasation analysis, 1.5×10^6 1205Lu cells were labelled for 1 h with CellTracker™ Green (Invitrogen) and injected via the tail vein of nude mice.

The subject of test [16] is Slug and N-cadherin in Mewo cells. The experiment in a line: Western blot in Mewo cells infected with Adp53. The test is classed as cell-based. To be noted: re-expression of WT p53 by adenovirus infection. How it is done:
as §3

Test [17] deals with melanomas cells. To be noted: long term treatment of 96 hours; cited from earlier work.
Test [18] concerns 1205Lu melanoma cells. The experiment in a line: Pulmonary extravasation model in nude mice. To be noted: cells treated 24 h with 10 mM before tail vein injection; lungs after 24 h.
Where [19] appears, read: cells transfected with siRNA against p53.

The structures appear in SMILES notation. Starred links: 1 amine or outer side, 2 acyl side, 3 side chain; linkers in the order of their positions; H or OH if unused. Positions of bridges follow the written chain, without caps; N, C: chain ends. Non-standard residues stand in square brackets, D forms with d. Residues, ends and D or L forms follow the SMILES beside them. Chains are numbered I, II in the order given. Actinocin(9to1) = Cc1c2oc3c(C)ccc(C(=O)[*:1])c3nc-2c(C(=O)[*:2])c(N)c1=O; NMeV = CN[C@H](C(=O)O)C(C)C; Sar = CNCC(=O)O

Regarding `NC(=O)c1ncn([C@@H]2O[C@H](CO)[C@@H](O)[C@H]2O)c1N` [AICAR, 5-aminoimidazole-4-carboxamide-1-β-D-ribofuranoside], the “cell invasion, dose dependence” value in test [1] (24 h) and in test [2] was “decreases cell invasion in dose dependent manner” throughout.

Regarding `Cc1c2oc3c(C)ccc(C(=O)N[C@@H]4C(=O)N[C@H](C(C)C)C(=O)N5CCC[C@H]5C(=O)N(C)CC(=O)N(C)[C@@H](C(C)C)C(=O)O[C@@H]4C)c3nc-2c(C(=O)N[C@@H]2C(=O)N[C@H](C(C)C)C(=O)N3CCC[C@H]3C(=O)N(C)CC(=O)N(C)[C@@H](C(C)C)C(=O)O[C@@H]2C)c(N)c1=O` [Actinomycin D] (I: T[dV]P[Sar][NMeV] / II: T[dV]P[Sar][NMeV]; ester I:1-I:C, II:1-II:C; linker I:N-II:N via Actinocin(9to1)), in test [3], the “increase of p53 promoter activity” value is given as “comparable to metformin 10 mM”.

As for `CC(C)[C@H](NC(=O)c1ccc2ccccc2n1)C(=O)N[C@@H](CC(=O)O)C(=O)COc1c(F)cccc1F` [QVD], in test [4] (spheroids embedded in collagen), the “cell invasion into collagen” value is “contrary to QVD alone, association of QVD with metformin block invasion”.

One may read the inhibition as the drop in the measured response relative to a control, in per cent. On to `CN(C)C(=N)N=C(N)N` [metformin], for which the cell migration entry in [5] and in test [6] was “do not inhibit migration” throughout. In addition, the “cell migration (wound healing)” value in test [7] and in [8] was “Results were confirmed” throughout. Besides, the “cell invasion, dose dependence” value in test [1] (24 h) and in test [2] was “decreases cell invasion in dose dependent manner” each time. Besides, the inhibition at 10000 µM in [1] (Homo sapiens, 1205Lu, 10 mM, 24 h, read-out: inhibition of cell invasion) came out at 95%; in test [2] (Homo sapiens, A-375, 10 mM, read-out: inhibition of cell invasion) it was 90%. Further, the inhibition of invasion entry in test [1] (setting [19]) is “prevent downregulation of Slug and inhibition of invasion”; in test [1] (in presence of dominant negative forms of AMPK), “abolished”. The cell invasion result in [9] was “significant inhibition of cell invasion”. The “cell invasion into collagen” value in test [4] (in presence of apoptosis inhibitor QVD) is “block invasion”; in test [4] (spheroids embedded in collagen) it was “significantly reduced cell invasion into collagen”. In addition, the N-cadherin expression result in test [10] (24 h) is “decrease”; in test [10] (24 h, listed as Metformin) it was “inhibited in a dose dependent manner”. The SPARC expression entry in test [10] (24 h) is given as “inhibited in a dose dependent manner”. Besides, the Slug level entry in test [10] (24 h) is reported as “decrease”; in test [10] (24 h, listed as Metformin), “also decrease”. The Snail level entry in test [10] (24 h) is listed as “also decrease”. The fibronectin expression entry in test [10] (24 h) is on record as “decrease”; in test [10] (24 h, listed as Metformin) it was “inhibited in a dose dependent manner”. Also, the vimentin expression entry in test [10] (24 h) is reported as “not modified”. For the same compound, in [10] (setting [19]), the Slug downregulation result is given as “prevent downregulation of Slug”. Further, the “decrease of total MMP activities” value in test [11] is on record as “approximately 30%”. Further, the MMP-2 activity result in test [12] (5 mM) is listed as “important diminution”. The “decrease of MMP-2 activity” value in [12] (10 mM) is recorded as 80%. The MMP-9 activity result in test [13] (5 mM) is listed as “important diminution”. In [13] (10 mM), the “decrease of MMP-9 activity” value stood at 45%. Moreover, the “metformin-stimulated phosphorylation of Acetyl-CoA carboxylase (ACC)” value in [14] (cells infected by AdAMPK DN α1 and α2) is “abolished”. The “Slug and SPARC expression” value in test [14] (cells infected with Ad control) is given as “inhibited”; in test [14] (expression of AMPK DN constructs) it was “abrogates these inhibitory effects”. In addition, the “increase in bioluminescence intensity in lungs of vehicle-treated mice compared to metformin-treated mice” value in test [15] (7 days after cell injection, intraperitoneal, 2 mg/mouse/day) is 3 fold. Further, the “bioluminescence intensity in lungs” value in test [15] (after 39 day, intraperitoneal, 2 mg/mouse/day) is listed as “very weak”. Also, the “Slug staining in sections of lung tumors” value in test [15] (immunofluorescent staining, vs vehicle) is “significant decrease in Slug staining”. For the same compound, the “decrease in Slug and N-cadherin expressions” value in [16] is “restored”. In addition, in test [17], the cell death entry is on record as “induced cell death of melanomas cells”. In addition, the “micro-metastases in the lungs (extravasation)” value in [18] is on record as “much more micro-metastases in the lungs than 1205Lu cells treated by metformin”.

Turning to `[H]/N=C(/N)N/C(=N/[H])NCCc1ccccc1` [phenformin], the “cell invasion, dose dependence” value in [1] (24 h) and in test [2] was “decreases cell invasion in dose dependent manner” throughout.

As to `Oc1ccc(/C=C/c2cc(O)cc(O)c2)cc1` [resveratrol, 3,5,4′-trihydroxy-trans-stilbene], the “cell invasion, dose dependence” value in test [1] (24 h) and in [2] was “decreases cell invasion in dose dependent manner” each time.
